Target: T1, EHMT2 (Homo sapiens, UniProt Q96KQ7)
T1 construct: host or cells: MDA-MB-231
T1 sequence (Q96KQ7 1-1210): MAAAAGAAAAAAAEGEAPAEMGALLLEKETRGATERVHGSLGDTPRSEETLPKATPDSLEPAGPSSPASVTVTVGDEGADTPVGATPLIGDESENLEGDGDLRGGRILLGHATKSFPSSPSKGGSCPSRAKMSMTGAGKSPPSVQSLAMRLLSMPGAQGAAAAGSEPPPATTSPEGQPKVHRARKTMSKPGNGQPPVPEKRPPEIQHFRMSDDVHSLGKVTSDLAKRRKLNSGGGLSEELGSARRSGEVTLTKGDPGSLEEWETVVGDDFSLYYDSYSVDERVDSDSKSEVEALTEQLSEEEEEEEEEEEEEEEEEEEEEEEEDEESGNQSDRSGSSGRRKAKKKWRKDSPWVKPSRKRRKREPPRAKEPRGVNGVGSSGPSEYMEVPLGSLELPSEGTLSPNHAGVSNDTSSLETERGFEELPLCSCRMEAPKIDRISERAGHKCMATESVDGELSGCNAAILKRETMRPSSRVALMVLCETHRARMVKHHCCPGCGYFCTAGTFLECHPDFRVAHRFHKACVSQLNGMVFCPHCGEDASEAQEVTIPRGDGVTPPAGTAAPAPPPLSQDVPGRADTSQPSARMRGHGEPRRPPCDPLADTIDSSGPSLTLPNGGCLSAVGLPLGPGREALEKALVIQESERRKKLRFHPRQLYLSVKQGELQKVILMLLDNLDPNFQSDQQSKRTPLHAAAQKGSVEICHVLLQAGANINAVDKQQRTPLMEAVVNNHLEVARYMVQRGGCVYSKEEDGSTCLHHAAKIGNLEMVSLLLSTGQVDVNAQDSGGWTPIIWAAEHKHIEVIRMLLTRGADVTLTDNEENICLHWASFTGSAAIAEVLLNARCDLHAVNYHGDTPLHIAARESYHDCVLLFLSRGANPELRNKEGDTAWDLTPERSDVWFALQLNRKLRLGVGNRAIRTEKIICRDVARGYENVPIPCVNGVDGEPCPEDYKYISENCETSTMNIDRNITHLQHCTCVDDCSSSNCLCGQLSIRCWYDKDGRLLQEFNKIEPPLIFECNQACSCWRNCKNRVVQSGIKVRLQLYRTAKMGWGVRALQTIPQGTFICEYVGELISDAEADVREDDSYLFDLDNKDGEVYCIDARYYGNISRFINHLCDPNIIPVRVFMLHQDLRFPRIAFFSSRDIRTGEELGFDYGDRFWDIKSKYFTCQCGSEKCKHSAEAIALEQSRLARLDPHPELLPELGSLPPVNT
Experiment: MDA-MB-231 H3K9me2 in-cell Western assay (EHMT2 ICW)
Assay type: cell-based
Settings: Table II; MDA-MB-231 H3K9me2 in-cell Western; read-out: EHMT2 ICW (IC50 μM)
Source text: RPMI/Glutamax medium, Penicillin-Streptomycin, Heat Inactivated Fetal Bovine Serum, and D-PBS were purchased from Life Technologies (Grand Island, N.Y., USA). Odyssey blocking buffer, 800CW goat anti-mouse IgG (H+L) antibody, and Licor Odyssey Infrared Scanner were purchased from Licor Biosciences, Lincoln, Nebr., USA. […] 16% Paraformaldehyde was purchased from Electron Microscopy Sciences, Hatfield, Pa., USA).MDA-MB-231 cells were maintained in complete growth medium (RPMI supplemented with 10% v/v heat inactivated fetal bovine serum) and cultured at 37° C. under 5% CO2. UNC0638 was purchased from Sigma-Aldrich (St. Louis, Mo., USA).
Compound (100 nL) was added directly to 384-well cell plate. MDA-MB-231 cells (ATCC) were seeded in assay medium (RPMI/Glutamax supplemented with 10% v/v heat inactivated fetal bovine serum and 1% Penicillin/Streptomycin, Life Technologies) at a concentration of 3,000 cells per well to a Poly-D-Lysine coated 384-well cell culture plate with 50 μL per well. […] Plates were incubated at room temperature for 30 minutes and then incubated at 37° C., 5% CO2 for additional 48 hours. After the incubation, 50 μL per well of 8% paraformaldehyde (Electron Microscopy Sciences) in PBS was added to the plates and incubated at room temperature for 20 minutes. […] Next, 60 μL per well of Odyssey blocking buffer (Licor Biosciences) was added to each plate and incubated for 1 hour at room temperature. Blocking buffer was removed and 20 μL of monoclonal primary antibody α-H3K9me2 (Abcam) diluted 1:800 in Odyssey buffer with 0.1% Tween 20 (v/v) were added and plates were incubated overnight (16 hours) at 4° C. Plates were washed 5 times with 100 μL per well of wash buffer. Next 20 μL per well of secondary antibody was added (1:500 800CW donkey anti-mouse IgG (H+L) antibody (Licor Biosciences), 1:1000 DRAQ5 (Cell Signaling Technology) in Odyssey buffer with 0.1% Tween 20 (v/v)) and incubated for 1 hour at room temperature. The plates were washed 5 times with 100 μL per well wash buffer then 2 times with 100 μL per well of water. Plates were allowed to dry at room temperature then imaged on a Licor Odyssey Infrared Scanner (Licor Biosciences) which measured integrated intensity at 700 nm and 800 nm wavelengths. Both 700 and 800 channels were scanned.
First, the ratio for each well was determined by:
The average of the ratio values for each well was calculated and used to determine the percent inhibition for each test well in the plate. Control compound was serially diluted three-fold in DMSO for a total of 10 test concentrations beginning at 1 μM. Percent inhibition was calculated as: […]
IC50 curves were generated using triplicate wells per concentration of compound. […] IC50 values were calculated using a non-linear regression (variable slope-four parameter fit model) with by the following formula: […]

| SMILES | IC50 |
| --- | --- |
| COc1ccc(Nc2nccc(N3CCc4nc[nH]c(=O)c4C3)n2)cc1OCCCN1CCCC1 [Compound 134] | > 10 µM |
| CC(=O)N1CCC(CNc2ccnc(Nc3ccc(C)c(OCCCN4CCCC4)c3)n2)CC1 [Compound 145] | > 10 µM |
| COc1ccc(Nc2ccnc(OCC3CCN(C(C)=O)CC3)c2)cc1OCCCN1CCCC1 [Compound 157] | > 10 µM |
| COc1ccc(Nc2nccc(N3CCC(C(N)=O)CC3)n2)cc1OCCCN1CCCC1 [Compound 153] | > 10 µM |
| COc1ccc(Nc2nccc(N3CCCN(C(C)=O)CC3)n2)cc1OCCCN1CCCC1 [Compound 138] | > 10 µM |
| COc1ccc(Nc2nccc(N3CCN(C)C(=O)C3)n2)cc1OCCCN1CCCC1 [Compound 132] | > 10 µM |
| COc1ccc(Nc2nccc(N(C)C3CCOCC3)n2)cc1OCCCN1CCCC1 [Compound 142] | > 10 µM |
| COc1ccc(Nc2nccc(N3CCCOCC3)n2)cc1OCCCN1CCCC1 [Compound 151] | > 10 µM |
| COc1ccc(Nc2nccc(N3CCN(C(C)=O)CC3)n2)cc1OCCCN1CCCC1 [Compound 139] | > 10 µM |
| COc1ccc(Nc2nccc(NCc3ccc(=O)[nH]c3)n2)cc1OCCCN1CCCC1 [Compound 165] | > 10 µM |
| COc1ccc(Nc2nccc(N3CCN(S(C)(=O)=O)CC3)n2)cc1OCCCN1CCCC1 [Compound 162] | > 10 µM |
| COc1ccc(Nc2nccc(N(C)CCO)n2)cc1OCCCN1CCCC1 [Compound 150] | > 10 µM |
| COc1ccc(Nc2nccc(N3CCC(C)(O)CC3)n2)cc1OCCCN1CCCC1 [Compound 141] | > 10 µM |
| COc1ccc(Nc2nccc(NCCc3ccccn3)n2)cc1OCCCN1CCCC1 [Compound 167] | 0.1 to 1 µM |
| COc1ccc(Nc2nccc(N3CCC(OC)CC3)n2)cc1OCCCN1CCCC1 [Compound 149] | > 10 µM |
| COc1ccc(Nc2nccc(N3CCc4ncncc4C3)n2)cc1OCCCN1CCCC1 [Compound 156] | > 10 µM |
| COc1ccc(Nc2ccnc(N(C)CC3CCN(C(C)=O)CC3)c2)cc1OCCCN1CCCC1 [Compound 13, 1-(4-(((4-((4-methoxy-3-(3-(pyrrolidin-1-yl)propoxy)phenyl)amino)pyridin-2-yl)(methyl)amino)methyl)piperidin-1-yl)ethan-1-one] | > 10 µM |
| COc1ccc(Nc2nccc(NCC3CCN(C(C)=O)CC3)n2)cc1OCCCNc1ccccc1 [Compound 160] | > 10 µM |
| COc1ccc(Nc2nccc(N(C)CCCO)n2)cc1OCCCN1CCCC1 [Compound 140] | > 10 µM |
| COCCCN(C)c1ccnc(Nc2ccc(OC)c(OCCCN3CCCC3)c2)n1 [Compound 143] | > 10 µM |
| COc1ccc(Nc2nc(NCC3CCNCC3)cc(N3CCCC3)n2)cc1OCCCN1CCCC1 [Compound 103] | > 10 µM |
| COc1ccc(Nc2nccc(NC(C)(C)C)n2)cc1OCCCN1CCCC1 [Compound 6, N^4-(tert-butyl)-N^2-(4-methoxy-3-(3-(pyrrolidin-1-yl)propoxy)phenyl)pyrimidine-2,4-diamine] | 1 to 10 µM |
| COc1ccc(Nc2nccc(N3CCc4[nH]ncc4C3)n2)cc1OCCCN1CCCC1 [Compound 128] | > 10 µM |
| COc1cnc(Nc2ccnc(CNC3CCOCC3)c2)cc1OCCCN1CCCC1 [Compound 12, 5-methoxy-4-(3-(pyrrolidin-1-yl)propoxy)-N-(2-(((tetrahydro-2H-pyran-4-yl)amino)methyl)pyridin-4-yl)pyridin-2-amine] | > 10 µM |
| COc1ccc(Nc2cc(CNC3CCOCC3)n(C)n2)cc1OCCCN1CCCC1 [Compound 127] | > 10 µM |
| CC(=O)N1CCC(CNc2ccnc(Nc3ccc(Cl)c(OCCCN4CCCC4)c3)n2)CC1 [Compound 8, 1-(4-(((2-((4-chloro-3-(3-(pyrrolidin-1-yl)propoxy)phenyl)amino)pyrimidin-4-yl)amino)methyl)piperidin-1-yl)ethan-1-one] | 1 to 10 µM |
| COc1ccc(Nc2nccc(N(C)Cc3cccnc3)n2)cc1OCCCN1CCCC1 [Compound 135] | > 10 µM |
| COc1ccc(Nc2nccc(NCC3CCN(C)CC3)n2)cc1OCCCNc1ccccc1 [Compound 159] | 1 to 10 µM |
| COc1ccc(Nc2cc(NCC3CCNCC3)ccn2)cc1OCCCN1CCCC1 [Compound 10, N^2-(4-methoxy-3-(3-(pyrrolidin-1-yl)propoxy)phenyl)-N^4-(piperidin-4-ylmethyl)pyridine-2,4-diamine] | > 10 µM |
| COc1ccc(Nc2nccc(N3CCC(NC(C)=O)CC3)n2)cc1OCCCN1CCCC1 [Compound 161] | > 10 µM |

Second part, the compound after the results:

| IC50 | SMILES |
| --- | --- |
| > 10 µM | COc1ccc(Nc2nccc(N3CC(C(N)=O)C3)n2)cc1OCCCN1CCCC1 [Compound 179] |
| 1 to 10 µM | COc1ccc(Nc2nccc(NCC3CCN(S(C)(=O)=O)CC3)n2)cc1OCCCN1CCCC1 [Compound 199] |
| 0.1 to 1 µM | CNc1cc(C)nc(Nc2ccc(OC)c(OCCCN3CC[C@@H](F)C3)c2)n1 [Compound 186] |
| > 10 µM | COc1ccc(Nc2cc(NCC3CCN(C(C)=O)CC3)cnn2)cc1OCCCN1CCCC1 [Compound 185] |
| > 10 µM | COc1ccc(Nc2nccc(N3CC(C(=O)N(C)C)C3)n2)cc1OCCCN1CCCC1 [Compound 170] |
| 0.1 to 1 µM | COc1ccc(Nc2nccc(NCCn3cccn3)n2)cc1OCCCN1CCCC1 [Compound 193] |
| > 10 µM | COc1ccc(Nc2nccc(N3CCS(=O)(=O)CC3)n2)cc1OCCCN1CCCC1 [Compound 169] |
| 0.1 to 1 µM | COc1ccc(Nc2nccc(NCc3ccc4nccn4c3)n2)cc1OCCCN1CCCC1 [Compound 191] |
| > 10 µM | COc1ccc(Nc2ncc(CO)cn2)cc1OCCCN1CCCC1 [Compound 181] |
| > 10 µM | COCCN(C)c1ccnc(Nc2ccc(OC)c(OCCCN3CCCC3)c2)n1 [Compound 177] |
| > 10 µM | COc1ccc(Nc2cncc(NCC3CCN(C(C)=O)CC3)c2)cc1OCCCN1CCCC1 [Compound 184] |
| > 10 µM | CNc1cc(Nc2ccc(OC)c(OCCCN3CCCC3)c2)cnn1 [Compound 188] |
| 0.1 to 1 µM | CCOC(=O)N1CCC(CNc2ccnc(Nc3ccc(OC)c(OCCCN4CCCC4)c3)n2)CC1 [Compound 203] |
| 1 to 10 µM | COc1ccc(Nc2nccc(NCC3CCN(C(C)=O)CC3)n2)cc1OCC(C)CN1CCCC1 (centres unmarked) [Compound 183] |
| > 10 µM | CNc1cccc(Nc2ccc(OC)c(OCCCN3CCCC3)c2)n1 [Compound 176] |
| > 10 µM | COc1ccc(Nc2nccc(N(C)CC3CCN(C(C)=O)CC3)n2)cc1OCCCN1CCCC1 [Compound 172] |
| > 10 µM | COc1ccc(Nc2nc(C)cc(C)n2)cc1OCCCN1CCCC1 [Compound 175] |
